Reference: US10328053B2 (Gilead Sciences, Inc., priority 2016, dated 2019)

What was measured:
[1] = system: pooled cryopreserved hepatocytes; experiment: Hepatic Stability Assay (in vitro half-life method); type: in vitro ADME; design: dose or concentration left out as unconfirmed; details: 37° C., 1×10^6 cells/mL, 0-6 hours, LC-MS/MS, 39.5 hours is the maximum detectable half life
Outline: (§1)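 Pooled cryopreserved hepatocytes (1×10^6 cells/mL) incubated with compound at […] test concentration, 37° C.; samples at 0, 1, 3 and 6 h quantified by LC-MS/MS. Half-life from rate of compound disappearance, scaled to predicted hepatic clearance via well-stirred model.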

[2] = system: HBV AD38 viral particles in HepG2 cell line overexpressing NTCP; experiment: HBV DNA Quantification Assay; type: cell-based; details: Hepatitis B virus, HepG2, 120 h, HBV-infected HepG2-NTCP cells, 5 days incubation, HBV DNA in culture supernatant (QuantiGene 2.0); geometric mean of a minimum of four determinations
Outline: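 Antiviral EC50 derived by four-parameter dose-response fit and given as geometric mean of at least four runs. Read-out was branched-DNA (QuantiGene 2.0) luminescence for HBV DNA in culture supernatant after 5 days of compound exposure. Cells: HepG2-NTCP infected 4 days beforehand with AD38 particles, 4000 genome equivalents per cell.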

[3] = Hepatic Stability Assay (in vitro half-life method); type: in vitro ADME; design: dose or concentration left out as unconfirmed; details: pooled cryopreserved hepatocytes, 37° C., 1×10^6 cells/mL, 0-6 hours, LC-MS/MS, 39.5 hours is the maximum detectable half life, read-out: t½ (converted)
Outline: as §1

| Structure (SMILES) | t½ [1] | EC50 [2] | half-life [3] |
| --- | --- | --- | --- |
| CNC(=O)C1(NC(=O)C(=O)c2c(C)c(C(=O)Nc3ccc(F)c(Cl)c3)n3c2CCC3C)CC(F)(F)C1 (single isomer, unassigned) [Example 22, N-(3-chloro-4-fluorophenyl)-7-(2-((3,3-difluoro-1-(methylcarbamoyl)cyclobutyl)amino)-2-oxoacetyl)-3,6-dimethyl-2,3-dihydro-1H-pyrrolizine-5-carboxamide] | 2.7 h | – | – |
| CNC(=O)C1(NC(=O)C(=O)c2c(C)c(C(=O)Nc3ccc(F)c(Cl)c3)n3c2CCC3C)CC(F)(F)C1 (single isomer, unassigned) [Example 23, N-(3-chloro-4-fluorophenyl)-7-(2-((3,3-difluoro-1-(methylcarbamoyl)cyclobutyl)amino)-2-oxoacetyl)-3,6-dimethyl-2,3-dihydro-1H-pyrrolizine-5-carboxamide] | 9.6 h | – | – |
| Cc1c(C(=O)C(=O)N[C@H](C)C(F)(F)F)c2n(c1C(=O)Nc1ccc(F)c(Cl)c1)C(C)CC2 (single isomer, unassigned) [Example 25] | 9.1 h | – | – |
| CNC(=O)C1(NC(=O)C(=O)c2c(C)c(C(=O)Nc3ccc(F)cc3)n3c2CCC3)CC(F)(F)C1 [Example 47, 7-(2-((3,3-difluoro-1-(methylcarbamoyl)cyclobutyl)amino)-2-oxoacetyl)-N-(4-fluorophenyl)-6-methyl-2,3-dihydro-1H-pyrrolizine-5-carboxamide] | 39.5 h | – | – |
| CNC(=O)C1(NC(=O)C(=O)c2c(C)c(C(=O)Nc3ccc(F)c(F)c3)n3c2C[C@@H](F)C3)CC(F)(F)C1 [Example 49, (R)-7-(2-((3,3-difluoro-1-(methylcarbamoyl)cyclobutyl)amino)-2-oxoacetyl)-N-(3,4-difluorophenyl)-2-fluoro-6-methyl-2,3-dihydro-1H-pyrrolizine-5-carboxamide] | 39.5 h | – | – |
| Cc1c(C(=O)C(=O)NC2(c3c[nH]nn3)CC2)c2n(c1C(=O)Nc1ccnc(C(F)F)c1)[C@@H]1C[C@@H]1C2 [Example 56, (1aR,6aR)-5-(2-((1-(1H-1,2,3-triazol-4-yl)cyclopropyl)amino)-2-oxoacetyl)-N-(2-(difluoromethyl)pyridin-4-yl)-4-methyl-1,1a,6,6a-tetrahydrocyclopropa[b]pyrrolizine-3-carboxamide] | 39.5 h | – | – |
| Cc1c(C(=O)C(=O)NC2(c3c[nH]nn3)CC2)c2n(c1C(=O)Nc1ccc(F)cc1)CCC2 [Example 70, 7-(2-((1-(1H-1,2,3-triazol-4-yl)cyclopropyl)amino)-2-oxoacetyl)-N-(4-fluorophenyl)-6-methyl-2,3-dihydro-1H-pyrrolizine-5-carboxamide] | 39.5 h | – | – |
| Cc1c(C(=O)C(=O)NC2(c3c[nH]nn3)COC2)c2n(c1C(=O)Nc1ccc(F)c(F)c1)[C@@H]1C[C@@H]1C2 [Example 87, (1aR,6aR)-5-(2-((3-(1H-1,2,3-triazol-4-yl)oxetan-3-yl)amino)-2-oxoacetyl)-N-(3,4-difluorophenyl)-4-methyl-1,1a,6,6a-tetrahydrocyclopropa[b]pyrrolizine-3-carboxamide] | – | 12.5 nM | 6.3 h |
| Cc1c(C(=O)C(=O)NC2(c3c[nH]nn3)COC2)c2n(c1C(=O)Nc1ccc(F)c(Cl)c1)CCC2 [Example 88, 7-(2-((3-(1H-1,2,3-triazol-4-yl)oxetan-3-yl)amino)-2-oxoacetyl)-N-(3-chloro-4-fluorophenyl)-6-methyl-2,3-dihydro-1H-pyrrolizine-5-carboxamide] | – | 8.7 nM | 9.9 h |
| Cc1c(C(=O)C(=O)NC2(c3c[nH]nn3)CC(F)(F)C2)c2n(c1C(=O)Nc1ccc(F)c(C(F)F)c1)CCC2 [Example 89, 7-(2-((3,3-difluoro-1-(1H-1,2,3-triazol-4-yl)cyclobutyl)amino)-2-oxoacetyl)-N-(3-(difluoromethyl)-4-fluorophenyl)-6-methyl-2,3-dihydro-1H-pyrrolizine-5-carboxamide] | – | 2.9 nM | 10.3 h |
| Cc1c(C(=O)C(=O)NC2(c3c[nH]nn3)CC2)c2n(c1C(=O)Nc1cc(F)c(F)cc1F)CCC2 [Example 90, 7-(2-((1-(1H-1,2,3-triazol-4-yl)cyclopropyl)amino)-2-oxoacetyl)-6-methyl-N-(2,4,5-trifluorophenyl)-2,3-dihydro-1H-pyrrolizine-5-carboxamide] | – | 183 nM | 31.4 h |
| C#CC1(NC(=O)C(=O)c2c(C)c(C(=O)Nc3cc(F)c(F)c(F)c3)n3c2CCC3)CC1 [Example 92, 7-(2-((1-ethynylcyclopropyl)amino)-2-oxoacetyl)-6-methyl-N-(3,4,5-trifluorophenyl)-2,3-dihydro-1H-pyrrolizine-5-carboxamide] | – | 6.4 nM | 2.2 h |
| Cc1c(C(=O)C(=O)NC2(c3cnn[nH]3)CC2)c2n(c1C(=O)Nc1ccc(F)cc1F)CCC2 [Example 93, 7-(2-((1-(1H-1,2,3-triazol-5-yl)cyclopropyl)amino)-2-oxoacetyl)-N-(2,4-difluorophenyl)-6-methyl-2,3-dihydro-1H-pyrrolizine-5-carboxamide] | – | 254 nM | 29.9 h |
| C#CC1(NC(=O)C(=O)c2c(C)c(C(=O)Nc3ccc(F)c(Cl)c3)n3c2CCC3)CC1 [Example 94, N-(3-chloro-4-fluorophenyl)-7-(2-((1-ethynylcyclopropyl)amino)-2-oxoacetyl)-6-methyl-2,3-dihydro-1H-pyrrolizine-5-carboxamide] | – | 5.8 nM | 2.9 h |
| Cc1c(C(=O)C(=O)NC2(c3cnn[nH]3)CC(F)(F)C2)c2n(c1C(=O)Nc1ccc(F)cc1)[C@@H]1C[C@@H]1C2 [Example 100, (1aR,6aR)-5-(2-((3,3-difluoro-1-(1H-1,2,3-triazol-5-yl)cyclobutyl)amino)-2-oxoacetyl)-N-(4-fluorophenyl)-4-methyl-1,1a,6,6a-tetrahydrocyclopropa[b]pyrrolizine-3-carboxamide] | – | 3.7 nM | 3.1 h |
| Cc1c(C(=O)C(=O)NC2(c3c[nH]nn3)CC2)c2n(c1C(=O)Nc1cc(Cl)cc(Cl)c1)CCC2 [Example 102, 7-(2-((1-(1H-1,2,3-triazol-4-yl)cyclopropyl)amino)-2-oxoacetyl)-N-(3,5-dichlorophenyl)-6-methyl-2,3-dihydro-1H-pyrrolizine-5-carboxamide] | – | 112 nM | 4.8 h |
| CNC(=O)C1(NC(=O)C(=O)c2c(C)c(C(=O)Nc3ccc(F)c(Cl)c3)n3c2CCC3)CC1 [Example 105, N-(3-chloro-4-fluorophenyl)-6-methyl-7-(2-((1-(methylcarbamoyl)cyclopropyl)amino)-2-oxoacetyl)-2,3-dihydro-1H-pyrrolizine-5-carboxamide] | – | 170 nM | 24.3 h |
| Cc1c(C(=O)C(=O)NC2(c3c[nH]nn3)CC2)c2n(c1C(=O)Nc1cccc(Cl)c1F)CCC2 [Example 107, 7-(2-((1-(1H-1,2,3-triazol-4-yl)cyclopropyl)amino)-2-oxoacetyl)-N-(3-chloro-2-fluorophenyl)-6-methyl-2,3-dihydro-1H-pyrrolizine-5-carboxamide] | – | 146 nM | 9.8 h |
| Cc1c(C(=O)C(=O)NC2(c3c[nH]nn3)CC2)c2n(c1C(=O)Nc1ccc(F)c(F)c1F)CCC2 [Example 111, 7-(2-((1-(1H-1,2,3-triazol-4-yl)cyclopropyl)amino)-2-oxoacetyl)-6-methyl-N-(2,3,4-trifluorophenyl)-2,3-dihydro-1H-pyrrolizine-5-carboxamide] | – | 154 nM | 10.1 h |
| Cc1c(C(=O)C(=O)NC2(c3c[nH]nn3)CC2)c2n(c1C(=O)Nc1cc(F)cc(C#N)c1)CCC2 [Example 126, 7-(2-((1-(1H-1,2,3-triazol-4-yl)cyclopropyl)amino)-2-oxoacetyl)-N-(3-cyano-5-fluorophenyl)-6-methyl-2,3-dihydro-1H-pyrrolizine-5-carboxamide] | – | 166 nM | 10.7 h |
| Cc1c(C(=O)C(=O)N[C@](C)(CO)C(F)(F)F)c2n(c1C(=O)Nc1ccc(F)c(Cl)c1)CCC2 [Example 132, (R)—N-(3-Chloro-4-fluorophenyl)-6-methyl-7-(2-oxo-2-((1,1,1-trifluoro-3-hydroxy-2-methylpropan-2-yl)amino)acetyl)-2,3-dihydro-1H-pyrrolizine-5-carboxamide] | – | 8.3 nM | 7.7 h |
| CNC(=O)[C@@](C)(NC(=O)C(=O)c1c(C)c(C(=O)Nc2ccc(F)c(F)c2)n2c1CCC2)C(F)(F)F [Example 137, (R)—N-(3,4-difluorophenyl)-6-methyl-7-(2-oxo-2-((1,1,1-trifluoro-2-methyl-3-(methylamino)-3-oxopropan-2-yl)amino)acetyl)-2,3-dihydro-1H-pyrrolizine-5-carboxamide] | – | 158 nM | 7.4 h |
| CNC(=O)[C@](C)(NC(=O)C(=O)c1c(C)c(C(=O)Nc2ccc(F)c(F)c2)n2c1CCC2)C(F)(F)F [Example 138, (S)—N-(3,4-difluorophenyl)-6-methyl-7-(2-oxo-2-((1,1,1-trifluoro-2-methyl-3-(methylamino)-3-oxopropan-2-yl)amino)acetyl)-2,3-dihydro-1H-pyrrolizine-5-carboxamide] | – | 160 nM | 17.9 h |
| CNC(=O)C1(NC(=O)C(=O)c2c(C)c(C(=O)Nc3ccnc(C(F)F)c3F)n3c2CCC3)CC(F)(F)C1 [Example 147, 7-(2-((3,3-difluoro-1-(methylcarbamoyl)cyclobutyl)amino)-2-oxoacetyl)-N-(2-(difluoromethyl)-3-fluoropyridin-4-yl)-6-methyl-2,3-dihydro-1H-pyrrolizine-5-carboxamide] | – | 103 nM | 24.8 h |
